From publication PMC7762994 (Viruses, 2020)

What was measured:
[1] = target: T1, HSPA1A (Homo sapiens, UniProt P0DMV8); assay: 2D-TPP in U87 cells
[2] = target: HARS2 (Homo sapiens, UniProt P49590); assay: TPP-TR in HAZV-infected SW13 cells; conditions: read-out: ΔTm of HARS2
[3] = tested on: Hazara virus (HAZV); assay: microbe, parasite or virus in culture; format: cell-based; conditions: SW13, 24 h
[4] = tested on: SW13 cells; assay: Viability of SW13 cells by nuclei count in the HAZV antiviral assay; format: cell-based; conditions: Homo sapiens; HAZV, SW13, MOI 1, 24 h; read-out: Viability (nuclei count) EC50
[5] = target: T2, HSPA2 (Homo sapiens, UniProt P54652); assay: 2D-TPP in U87 cells; format: binding; conditions: 1.5 h, destabilized, read-out: pEC50 of protein destabilization, HSPA2 (converted)
T2 construct: endogenous in cells; host or cells: U87 cells
T2 sequence (P54652 whole entry): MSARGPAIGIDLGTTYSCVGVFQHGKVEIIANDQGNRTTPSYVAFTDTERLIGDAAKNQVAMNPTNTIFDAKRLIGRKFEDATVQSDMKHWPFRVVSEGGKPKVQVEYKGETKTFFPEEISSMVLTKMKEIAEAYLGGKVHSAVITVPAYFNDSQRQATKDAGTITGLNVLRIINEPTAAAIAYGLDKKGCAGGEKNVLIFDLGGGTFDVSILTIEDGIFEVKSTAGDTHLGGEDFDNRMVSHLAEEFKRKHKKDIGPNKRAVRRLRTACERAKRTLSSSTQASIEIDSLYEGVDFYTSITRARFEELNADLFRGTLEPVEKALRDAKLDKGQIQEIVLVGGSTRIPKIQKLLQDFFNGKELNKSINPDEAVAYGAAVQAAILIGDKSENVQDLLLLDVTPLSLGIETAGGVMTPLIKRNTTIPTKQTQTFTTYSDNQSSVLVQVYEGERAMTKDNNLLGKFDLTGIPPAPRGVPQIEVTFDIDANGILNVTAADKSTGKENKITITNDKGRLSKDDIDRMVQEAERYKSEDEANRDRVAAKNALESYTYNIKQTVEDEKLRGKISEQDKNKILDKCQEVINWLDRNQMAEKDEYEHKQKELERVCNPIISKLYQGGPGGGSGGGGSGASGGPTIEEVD

[6] = target: T3, Hsp70 - HAZV NP interaction (Homo sapiens, UniProt P0DMV8); assay: Hsp70 immunoprecipitation in HAZV-infected Hek293T cells; format: cell-based; conditions: HAZV MOI 1, 20 μM, 1 h, statistically not significant
T3 construct: endogenous in cells; host or cells: HEK293T cells infected with HAZV (MOI 1)

[7] = target: EDEM3 (Homo sapiens, UniProt Q9BZQ6); assay: 2D-TPP in U87 cells; format: binding; parameters: endogenous in cells; host or cells: U87 cells; conditions: 1.5 h, stabilized, read-out: pEC50 of protein stabilization, EDEM3 (converted)
[8] = target: T1, HSPA1A; assay: TPP-TR in HAZV-infected SW13 cells; conditions: 20 μM, 4 h
[9] = target: T4, DNAJC13 (Homo sapiens, UniProt O75165); assay: 2D-TPP in U87 cells; format: binding; conditions: 1.5 h, stabilized, read-out: pEC50 of protein stabilization, DNAJC13 (converted)
T4 construct: endogenous in cells; host or cells: U87 cells
T4 sequence (O75165 whole entry): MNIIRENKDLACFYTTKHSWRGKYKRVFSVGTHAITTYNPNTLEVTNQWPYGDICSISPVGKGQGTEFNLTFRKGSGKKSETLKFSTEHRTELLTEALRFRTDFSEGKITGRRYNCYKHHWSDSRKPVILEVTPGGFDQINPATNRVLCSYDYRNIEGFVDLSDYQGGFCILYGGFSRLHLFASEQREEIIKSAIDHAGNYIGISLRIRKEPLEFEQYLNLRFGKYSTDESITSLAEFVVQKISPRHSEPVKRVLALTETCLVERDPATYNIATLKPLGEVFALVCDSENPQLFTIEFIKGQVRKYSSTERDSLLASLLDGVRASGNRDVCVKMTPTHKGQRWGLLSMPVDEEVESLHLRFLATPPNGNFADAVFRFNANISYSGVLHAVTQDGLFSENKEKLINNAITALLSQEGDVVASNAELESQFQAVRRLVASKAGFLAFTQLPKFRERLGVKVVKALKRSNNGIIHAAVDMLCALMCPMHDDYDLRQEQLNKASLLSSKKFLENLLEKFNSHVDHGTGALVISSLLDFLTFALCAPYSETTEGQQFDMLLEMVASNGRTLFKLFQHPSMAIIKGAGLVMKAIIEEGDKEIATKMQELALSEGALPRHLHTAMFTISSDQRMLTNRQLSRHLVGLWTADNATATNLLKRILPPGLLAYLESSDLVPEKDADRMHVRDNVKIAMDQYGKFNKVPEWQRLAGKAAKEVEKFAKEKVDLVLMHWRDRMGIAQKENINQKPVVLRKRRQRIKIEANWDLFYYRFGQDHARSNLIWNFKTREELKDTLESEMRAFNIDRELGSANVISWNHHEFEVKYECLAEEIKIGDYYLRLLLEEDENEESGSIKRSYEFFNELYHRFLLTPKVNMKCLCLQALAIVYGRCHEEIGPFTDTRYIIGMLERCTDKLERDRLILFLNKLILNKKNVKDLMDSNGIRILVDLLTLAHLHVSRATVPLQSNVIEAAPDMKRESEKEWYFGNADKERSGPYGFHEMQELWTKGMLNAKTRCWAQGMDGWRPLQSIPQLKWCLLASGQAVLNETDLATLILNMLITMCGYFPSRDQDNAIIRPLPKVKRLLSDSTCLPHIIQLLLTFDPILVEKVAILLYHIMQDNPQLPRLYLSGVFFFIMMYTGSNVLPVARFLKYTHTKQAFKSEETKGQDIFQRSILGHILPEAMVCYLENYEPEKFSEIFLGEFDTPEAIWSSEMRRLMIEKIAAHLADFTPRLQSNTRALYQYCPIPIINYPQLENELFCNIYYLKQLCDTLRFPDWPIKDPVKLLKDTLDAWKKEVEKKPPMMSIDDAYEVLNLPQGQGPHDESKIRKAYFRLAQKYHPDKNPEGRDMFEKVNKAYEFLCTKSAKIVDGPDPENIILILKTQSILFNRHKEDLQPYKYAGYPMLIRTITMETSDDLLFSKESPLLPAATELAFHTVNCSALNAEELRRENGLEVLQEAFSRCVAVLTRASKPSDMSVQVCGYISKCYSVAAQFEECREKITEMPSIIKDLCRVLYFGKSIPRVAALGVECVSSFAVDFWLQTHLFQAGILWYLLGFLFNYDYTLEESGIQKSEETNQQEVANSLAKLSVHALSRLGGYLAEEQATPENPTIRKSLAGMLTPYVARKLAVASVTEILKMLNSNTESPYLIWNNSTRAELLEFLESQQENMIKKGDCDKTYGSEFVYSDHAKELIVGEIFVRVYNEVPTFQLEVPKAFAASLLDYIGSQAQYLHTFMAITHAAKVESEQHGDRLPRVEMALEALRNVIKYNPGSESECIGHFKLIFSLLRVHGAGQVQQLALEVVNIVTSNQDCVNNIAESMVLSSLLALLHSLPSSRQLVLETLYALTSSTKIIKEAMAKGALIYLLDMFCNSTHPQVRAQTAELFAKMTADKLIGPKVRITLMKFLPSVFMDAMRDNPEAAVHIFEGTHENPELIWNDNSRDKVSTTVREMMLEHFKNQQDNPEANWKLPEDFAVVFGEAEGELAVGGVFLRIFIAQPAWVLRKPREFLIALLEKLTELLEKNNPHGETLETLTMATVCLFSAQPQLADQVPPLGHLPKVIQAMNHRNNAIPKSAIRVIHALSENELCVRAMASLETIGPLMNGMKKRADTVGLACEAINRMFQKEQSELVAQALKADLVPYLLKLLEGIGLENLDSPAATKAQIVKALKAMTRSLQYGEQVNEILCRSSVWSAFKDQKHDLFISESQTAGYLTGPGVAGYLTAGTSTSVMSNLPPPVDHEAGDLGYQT

[10] = target: T5, HSP90B1 (Homo sapiens, UniProt P14625); assay: 2D-TPP in U87 cells; format: binding; conditions: 1.5 h, stabilized, read-out: pEC50 of protein stabilization, HSP90B1 (converted)
T5 construct: endogenous in cells; host or cells: U87 cells

[11] = target: T6, HSPA9 (Homo sapiens, UniProt P38646); assay: 2D-TPP in U87 cells; format: binding
T6 construct: endogenous in cells; host or cells: U87 cells
T6 sequence (P38646 47-679): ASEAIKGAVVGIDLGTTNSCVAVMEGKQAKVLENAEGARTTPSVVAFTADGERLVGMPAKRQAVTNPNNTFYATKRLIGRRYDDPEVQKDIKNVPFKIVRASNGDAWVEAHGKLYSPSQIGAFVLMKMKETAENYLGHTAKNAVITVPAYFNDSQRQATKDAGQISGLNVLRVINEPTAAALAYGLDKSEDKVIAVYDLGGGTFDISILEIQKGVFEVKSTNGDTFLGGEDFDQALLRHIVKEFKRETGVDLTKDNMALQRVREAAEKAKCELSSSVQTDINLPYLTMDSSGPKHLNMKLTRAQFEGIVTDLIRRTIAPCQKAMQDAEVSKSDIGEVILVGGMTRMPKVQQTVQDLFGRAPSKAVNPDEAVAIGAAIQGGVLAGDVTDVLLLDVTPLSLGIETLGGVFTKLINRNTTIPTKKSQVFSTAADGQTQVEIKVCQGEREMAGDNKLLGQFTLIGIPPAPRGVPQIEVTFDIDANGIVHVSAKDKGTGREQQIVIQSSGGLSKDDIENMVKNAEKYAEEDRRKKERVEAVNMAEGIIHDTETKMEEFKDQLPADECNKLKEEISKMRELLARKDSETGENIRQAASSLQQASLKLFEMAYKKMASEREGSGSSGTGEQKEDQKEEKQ

[12] = target: T7, host proteins (proteome-wide) (Homo sapiens, UniProt A0FGR8); assay: 2D-TPP in U87 cells (proteome-wide); format: binding
T7 sequence (A0FGR8 1-921): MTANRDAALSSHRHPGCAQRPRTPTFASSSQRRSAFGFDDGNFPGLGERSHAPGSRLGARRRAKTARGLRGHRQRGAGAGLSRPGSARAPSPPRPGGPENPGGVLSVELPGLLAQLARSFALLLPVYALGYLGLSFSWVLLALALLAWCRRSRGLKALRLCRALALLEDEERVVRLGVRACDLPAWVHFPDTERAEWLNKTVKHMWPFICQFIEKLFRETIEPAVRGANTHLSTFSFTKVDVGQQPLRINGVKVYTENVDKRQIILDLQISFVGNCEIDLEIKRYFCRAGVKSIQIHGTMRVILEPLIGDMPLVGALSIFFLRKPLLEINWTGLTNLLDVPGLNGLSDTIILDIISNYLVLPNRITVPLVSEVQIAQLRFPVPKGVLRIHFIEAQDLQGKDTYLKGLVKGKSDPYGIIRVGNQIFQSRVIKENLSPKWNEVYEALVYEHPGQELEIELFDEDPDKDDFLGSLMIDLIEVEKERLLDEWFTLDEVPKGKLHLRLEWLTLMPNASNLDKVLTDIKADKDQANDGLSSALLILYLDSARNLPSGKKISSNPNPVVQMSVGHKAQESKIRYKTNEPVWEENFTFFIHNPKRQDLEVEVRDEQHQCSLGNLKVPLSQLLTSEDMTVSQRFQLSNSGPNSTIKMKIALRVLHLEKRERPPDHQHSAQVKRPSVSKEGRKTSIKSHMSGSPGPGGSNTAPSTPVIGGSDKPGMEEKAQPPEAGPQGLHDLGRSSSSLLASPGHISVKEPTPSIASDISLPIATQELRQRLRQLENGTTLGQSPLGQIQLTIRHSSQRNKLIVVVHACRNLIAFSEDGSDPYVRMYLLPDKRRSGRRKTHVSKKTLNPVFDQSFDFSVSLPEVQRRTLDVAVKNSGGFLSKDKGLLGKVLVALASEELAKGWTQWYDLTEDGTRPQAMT

[13] = target: DNAJC3 (Homo sapiens, UniProt Q13217); assay: TPP-TR in HAZV-infected SW13 cells; conditions: 20 μM, 4 h
Chain of DNAJC3 (Q13217 32-504): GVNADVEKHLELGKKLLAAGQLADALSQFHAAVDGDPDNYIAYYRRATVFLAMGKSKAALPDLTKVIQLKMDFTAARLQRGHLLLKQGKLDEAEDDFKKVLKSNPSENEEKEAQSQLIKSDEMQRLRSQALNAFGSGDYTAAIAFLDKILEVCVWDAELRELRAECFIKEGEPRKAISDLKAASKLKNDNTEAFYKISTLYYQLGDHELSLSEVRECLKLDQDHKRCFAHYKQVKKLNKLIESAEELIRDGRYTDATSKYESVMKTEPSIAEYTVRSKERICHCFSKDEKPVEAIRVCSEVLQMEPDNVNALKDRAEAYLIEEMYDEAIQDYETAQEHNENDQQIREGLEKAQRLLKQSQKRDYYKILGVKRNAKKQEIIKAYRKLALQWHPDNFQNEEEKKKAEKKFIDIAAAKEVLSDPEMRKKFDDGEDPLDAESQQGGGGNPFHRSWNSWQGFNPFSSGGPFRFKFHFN

[14] = target: T8, DNAJB11 (Homo sapiens, UniProt Q9UBS4); assay: TPP-TR in HAZV-infected SW13 cells
T8 sequence (Q9UBS4 23-358): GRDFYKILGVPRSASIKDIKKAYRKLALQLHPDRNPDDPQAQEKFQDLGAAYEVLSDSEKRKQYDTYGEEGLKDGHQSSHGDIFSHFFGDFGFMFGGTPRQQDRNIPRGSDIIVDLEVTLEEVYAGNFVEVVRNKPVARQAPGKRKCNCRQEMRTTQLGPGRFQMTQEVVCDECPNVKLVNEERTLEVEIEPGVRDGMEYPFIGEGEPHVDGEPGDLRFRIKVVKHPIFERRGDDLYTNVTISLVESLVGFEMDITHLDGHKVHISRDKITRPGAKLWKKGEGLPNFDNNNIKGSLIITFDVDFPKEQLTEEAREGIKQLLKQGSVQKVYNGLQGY

T1 sequence (P0DMV8 whole entry): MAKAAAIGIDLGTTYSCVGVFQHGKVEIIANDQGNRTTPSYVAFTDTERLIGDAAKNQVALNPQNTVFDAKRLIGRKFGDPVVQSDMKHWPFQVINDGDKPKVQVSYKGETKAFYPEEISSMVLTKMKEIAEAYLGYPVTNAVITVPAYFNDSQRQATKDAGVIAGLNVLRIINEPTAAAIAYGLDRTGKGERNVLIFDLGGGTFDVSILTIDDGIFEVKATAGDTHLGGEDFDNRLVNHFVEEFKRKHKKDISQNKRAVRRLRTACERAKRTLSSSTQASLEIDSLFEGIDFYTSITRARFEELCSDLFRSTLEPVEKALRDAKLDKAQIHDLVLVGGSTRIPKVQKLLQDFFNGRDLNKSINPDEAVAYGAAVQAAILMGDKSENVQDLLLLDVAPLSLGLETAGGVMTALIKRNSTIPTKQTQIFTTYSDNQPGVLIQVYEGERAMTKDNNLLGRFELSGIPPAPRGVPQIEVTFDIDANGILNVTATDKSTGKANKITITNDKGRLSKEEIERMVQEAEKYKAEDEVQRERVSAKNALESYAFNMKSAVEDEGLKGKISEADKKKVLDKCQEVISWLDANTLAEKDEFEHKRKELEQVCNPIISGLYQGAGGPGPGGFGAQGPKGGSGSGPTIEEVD
Chain of HARS2 (P49590 34-506): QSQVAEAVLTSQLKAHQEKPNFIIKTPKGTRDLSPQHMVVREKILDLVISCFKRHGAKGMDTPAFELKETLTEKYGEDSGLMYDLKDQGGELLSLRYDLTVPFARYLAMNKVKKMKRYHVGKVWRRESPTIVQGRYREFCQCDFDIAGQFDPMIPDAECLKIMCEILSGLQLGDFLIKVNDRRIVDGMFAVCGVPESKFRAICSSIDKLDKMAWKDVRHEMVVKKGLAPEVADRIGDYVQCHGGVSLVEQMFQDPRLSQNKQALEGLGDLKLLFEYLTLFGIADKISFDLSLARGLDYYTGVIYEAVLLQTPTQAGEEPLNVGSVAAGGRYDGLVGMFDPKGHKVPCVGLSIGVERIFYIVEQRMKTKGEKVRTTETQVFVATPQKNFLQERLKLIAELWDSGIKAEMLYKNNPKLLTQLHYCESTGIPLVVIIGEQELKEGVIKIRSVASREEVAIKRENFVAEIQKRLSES

Work on `CCOC(=O)c1cnn(-c2cccc3c2[nH]c(=O)n3C2CCN(C(=O)Nc3ccc(I)cc3)CC2)c1` [TH6744, ethyl 1-(1-(1-((4-iodophenyl)carbamoyl)piperidin-4-yl)-2-oxo-2,3-dihydro-1H-benzo[d]imidazol-4-yl)-1H-pyrazole-4-carboxylate] yielded an EC50 [1] of 3.16 µM, a ΔTm at 20 µM [2] of -9.2 °C and an IC50 ([3]; read-out: Antiviral on primary infection IC50 [µM]) of 10.9 µM. For the same compound, the EC50 ([3]; read-out: EC50 Infected cells (primary infection)) was 10.9 µM, the inhibition at 10 µM ([3]; read-out: Viral inhibition on primary infection (%)) was 85% and the EC50 [4] was 37.4 µM. For the same compound, the EC50 [5] was 3.16 µM, the “increase of HAZV NP interaction with Hsp70 (signal intensity)” value [6] was 2 fold and the EC50 [7] was 1 µM. For the same compound, the “thermal stability change of HSPA1A” value [8] was “destabilized”, the EC50 [9] was 1 µM and the EC50 [10] was 6.31 µM. For the same compound, the “thermal stability change of HSPA9” value [11] was “destabilized”, the pec50 ([12]; protein A0FGR8 (ESYT2), temperature 54, Set2) was 5.517 and the norm_rel_fc_protein_1_unmodified ([12]; protein A0FGR8 (ESYT2), temperature 54, dose 1, Set2) was 0.9139. The norm_rel_fc_protein_3_unmodified ([12]; protein A0FGR8 (ESYT2), temperature 54, dose 3, Set2) was 0.7618, the norm_rel_fc_protein_10_unmodified ([12]; protein A0FGR8 (ESYT2), temperature 54, dose 10, Set2) was 0.587 and the norm_rel_fc_protein_30_unmodified ([12]; protein A0FGR8 (ESYT2), temperature 54, dose 30, Set2) was 0.5111. The pec50 ([12]; protein A0FGR8 (ESYT2), temperature 57, Set2) was 5.71, the norm_rel_fc_protein_1_unmodified ([12]; protein A0FGR8 (ESYT2), temperature 57, dose 1, Set2) was 0.8819 and the norm_rel_fc_protein_3_unmodified ([12]; protein A0FGR8 (ESYT2), temperature 57, dose 3, Set2) was 0.7127. For the same compound, the norm_rel_fc_protein_10_unmodified ([12]; protein A0FGR8 (ESYT2), temperature 57, dose 10, Set2) was 0.531, the norm_rel_fc_protein_30_unmodified ([12]; protein A0FGR8 (ESYT2), temperature 57, dose 30, Set2) was 0.5493 and the pec50 ([12]; protein A0FGR8-2 (ESYT2), temperature 54, Set2) was 5.517. It also gave a norm_rel_fc_protein_1_unmodified ([12]; protein A0FGR8-2 (ESYT2), temperature 54, dose 1, Set2) of 0.9139, a norm_rel_fc_protein_3_unmodified ([12]; protein A0FGR8-2 (ESYT2), temperature 54, dose 3, Set2) of 0.7618 and a norm_rel_fc_protein_10_unmodified ([12]; protein A0FGR8-2 (ESYT2), temperature 54, dose 10, Set2) of 0.587. For the same compound, the norm_rel_fc_protein_30_unmodified ([12]; protein A0FGR8-2 (ESYT2), temperature 54, dose 30, Set2) was 0.5111, the “thermal stability change of DNAJC3” value [13] was “stabilized” and the “thermal stability change of DNAJB11” value ([14]; 20 μM, 4 h) was “stabilized”. It also gave a ΔTm at 20 µM ([14]; read-out: ΔTm of DNAJB11) of 13.6 °C.
